Test results taken from patent US20260325654A1, “METHODS AND COMPOSITIONS FOR TARGETED PROTEIN DEGRADATION” (Ranok Therapeutics (Hangzhou) Co. Ltd., priority 2023, published 2026).
pIC50: −log10 of the molar value. Counter-ions that a name gives are not always drawn.

How the values were obtained:
Assay type in all cases: cell-based, human
AGS = assay: CellTiter-Glo Reagent cancer cell line proliferation assay, AGS; settings: KRAS(G12D) heterozygous
Excerpt: (§1) The following cancer cell lines were employed: • AsPC-1 human pancreatic adenocarcinoma, homozygous KRAS(G12D), (ATCC, #CRL-1682); A-427 human lung carcinoma, heterozygous KRAS(G12D), (ATCC, #HTB-53); AGS human gastric adenocarcinoma, heterozygous KRAS(G12D), (ATCC, #CRL-1739); GP2D human colon adenocarcinoma, heterozygous KRAS(G12D), (Sigma Aldrich, 95090714); SW1990 human pancreatic adenocarcinoma, homozygous KRAS(G12D), (ATCC, #CRL2172); LU65A human lung giant cell carcinoma, heterozygous KRAS(G12C), (JCRB Cell Bank, #JCRB0054); NCIH727 human lung carcinoid, heterozygous KRAS(G12V), (ATCC, #CRL-5815); MKN1 human gastric adenosquamous carcinoma KRAS (wt), (JCRB Cell Bank, #JCRB0252). Cell lines were cultured according to ATCC, JCRB and Sigma Aldrich recommendations.
(§2) Cells were plated in 96-well tissue culture plates at 4,000 cells/well and incubated at 37° C./5% CO2 for 24 hr in 100 μl of media. 3-fold serial dilutions of each test compound were prepared ranging from 20 μM to 1.02 nM. Cells were then treated with test compounds at various concentrations with a final concentration of 0.5% DMSO/well, and then incubated at 37° C./5% CO2 for 24 hr. 100 μl of CellTiter-Glo® Reagent (Promega Corporation, Madison, WI) was added to each well and processed according manufacturer's protocol. Results were analyzed and IC50-values were calculated in GraphPad 7 software.

NCIH727 = assay: CellTiter-Glo Reagent cancer cell line proliferation assay, NCIH727; settings: NCIH727, KRAS(G12V) heterozygous
Excerpt: as §1, §2

LU65A = assay: CellTiter-Glo Reagent cancer cell line proliferation assay, LU65A; settings: KRAS(G12C) heterozygous
Excerpt: as §1, §2

pIC50 (AGS; Homo sapiens, 24 h)	pIC50 (NCIH727; Homo sapiens, NCI-H727, 24 h)	pIC50 (LU65A; Homo sapiens, 24 h)	pIC50 (NCIH727; 24 hr)	pIC50 (LU65A; 24 hr)	pIC50 (AGS; 24 hr)	SMILES
> 7.00	> 7.00	> 7.00				C#Cc1c(F)ccc2cc(O)cc(-c3nc(OC)c4c(N5CC6CCC(C5)N6C(=O)C(C#N)CC#N)nc(OCC5(CN6CCN(CC7CCN(c8ccc9c(c8)CN(C8CCC(=O)NC8=O)C9=O)CC7)CC6)CC5)nc4c3F)c12 (stereo not shown) [Compound 126]
> 7.00	> 7.00	> 7.00				C#Cc1c(F)ccc2cc(O)cc(-c3nc(OC)c4c(N5CCCOCC5)nc(OCC5(CN6CCN(CC7CCN(c8ccc9c(c8)CN(C8CCC(=O)NC8=O)C9=O)CC7)CC6)CC5)nc4c3F)c12 (stereo not shown) [Compound 127]
> 7.00	> 7.00	> 7.00				C#Cc1c(F)ccc2cc(O)cc(-c3ncc4c(N5CC6CCC(C5)N6C(=O)NC5CCC5)nc(OCC5(CN6CCN(CC7CCN(c8ccc9c(c8)CN(C8CCC(=O)NC8=O)C9=O)CC7)CC6)CC5)nc4c3F)c12 (stereo not shown) [Compound 128]
> 7.00	> 7.00	> 7.00				C#Cc1c(F)ccc2cc(O)cc(-c3ncc4c(N5CC6CCC(C5)N6C(=O)CC(C)C#N)nc(OCC5(CN6CCN(CC7CCN(c8ccc9c(c8)CN(C8CCC(=O)NC8=O)C9=O)CC7)CC6)CC5)nc4c3F)c12 (stereo not shown) [Compound 129]
6.00 to 7.00	6.00 to 7.00	6.00 to 7.00				C#Cc1c(F)ccc2cc(O)cc(-c3ncc4c(N5CC6CCC(C5)N6C(=O)CC(C)C#N)nc(OCC5(CN6CCN(CC7CCN(c8ccc9c(c8)CN(C8CCC(=O)N(C)C8=O)C9=O)CC7)CC6)CC5)nc4c3F)c12 (stereo not shown) [Compound 130]
> 7.00	> 7.00	> 7.00				C#Cc1c(F)ccc2cc(O)cc(-c3ncc4c(N5CC6CCC(C5)N6C(=O)CC(C)(C)C#N)nc(OCC5(CN6CCN(CC7CCN(c8ccc9c(c8)CN(C8CCC(=O)NC8=O)C9=O)CC7)CC6)CC5)nc4c3F)c12 (stereo not shown) [Compound 131]
> 7.00	> 7.00	> 7.00				C#Cc1c(F)ccc2cc(O)cc(-c3ncc4c(N5CC6CCC(C5)N6C(=O)CC(C)C#N)nc(OCC5(CN(C)Cc6ccc(C7CN(c8ccc9c(c8)CN(C8CCC(=O)NC8=O)C9=O)C7)cc6)CC5)nc4c3F)c12 (stereo not shown) [Compound 132]
> 7.00	> 7.00	> 7.00				C#Cc1c(F)ccc2cc(O)cc(-c3ncc4c(N5CC6CCC(C5)N6C(=O)CC(C)C#N)nc(OCC5CCCN(CC6CCN(c7ccc8c(c7)CN(C7CCC(=O)NC7=O)C8=O)CC6)C5)nc4c3F)c12 (stereo not shown) [Compound 133]
> 7.00	> 7.00	> 7.00				C#Cc1c(F)ccc2cc(O)cc(-c3ncc4c(N5CCCOCC5)nc(OCC5(CN6CCN(CC7CCN(c8ccc9c(c8)CN(C8CCC(=O)NC8=O)C9=O)CC7)CC6)CC5)nc4c3F)c12 (stereo not shown) [Compound 134]
> 7.00	> 7.00	> 7.00				C#Cc1c(F)ccc2cc(O)cc(-c3nc(OC)c4c(N5CC6CCC(C5)N6C(=O)CC(C)C#N)nc(OCC5(CN6CCN(CC7CCN(c8ccc9c(c8)CN(C8CCC(=O)NC8=O)C9=O)CC7)CC6)CC5)nc4c3F)c12 (stereo not shown) [Compound 135]
> 7.00	> 7.00	> 7.00				C#Cc1c(F)ccc2cc(O)cc(-c3ncc4c(N5CC6CCC(C5)N6C(=O)CC(C)C#N)nc(OCC5(CN6CCN(CC7CCN(c8ccc9c(c8)n(C)c(=O)n9C8CCC(=O)NC8=O)CC7)CC6)CC5)nc4c3F)c12 (stereo not shown) [Compound 136]
> 7.00	> 7.00	> 7.00				C#Cc1c(F)ccc2cc(O)cc(-c3ncc4c(N5CC6CCC(C5)N6C(=O)CC(C)C#N)nc(OCC5(CN6CCN(CC7CCN(c8ccc(NC9CCC(=O)NC9=O)cc8F)CC7)CC6)CC5)nc4c3F)c12 (stereo not shown) [Compound 137]
			< 6.00	< 6.00	< 6.00	C#Cc1c(F)ccc2cc(O)cc(-c3ncc4c(N5CC6CCC(C5)N6C(=O)CC(C)C#N)nc(OCC5(CN6CC7CC7C6)CC5)nc4c3OCc3ccc(-c4cn([C@H](C(=O)N5C[C@H](O)C[C@H]5C(=O)N[C@@H](CO)c5ccc(-c6ccnn6CC)cc5)C(C)C)nn4)cc3)c12 (stereo partly shown) [Compound 138]
< 6.00	< 6.00	< 6.00				C#Cc1c(F)ccc2cc(O)cc(-c3ncc4c(N5CCCOC6CC65)nc(OCC5(CN6CCN(CC7CCN(c8ccc9c(c8)CN(C8CCC(=O)NC8=O)C9=O)CC7)CC6)CC5)nc4c3F)c12 (stereo not shown) [Compound 139]
			> 7.00	> 7.00	> 7.00	C#Cc1c(F)ccc2cc(O)cc(-c3ncc4c(N5CC6CCC(C5)N6C(=O)CC(C)C#N)nc(OCC5(CN6CC7CC7C6)CC5)nc4c3OCc3ccc(-c4cn([C@H](C(=O)N5C[C@H](O)C[C@H]5C(=O)N[C@@H](CO)c5ccc(-c6ccnn6CC)cc5)C(C)C)nn4)cc3)c12 (stereo partly shown) [Compound 140]
> 7.00	> 7.00	> 7.00				C#Cc1c(F)ccc2cc(O)cc(-c3ncc4c(N5CC6CCC(C5)N6C(=O)Cn5cc(COCCOCCOCCNc6ccc7c(c6)CN(C6CCC(=O)NC6=O)C7=O)nn5)nc(OCC56CCCN5C[C@@H](F)C6)nc4c3F)c12 (stereo partly shown) [Compound 141]
> 7.00	> 7.00	> 7.00				C#Cc1c(F)ccc2cc(O)cc(-c3nc(OC)c4c(N5CC6CCC(C5)N6C(=O)CC(C)C#N)nc(OCC5(CN6CCN(CC7CCN(c8cccc(NC9CCC(=O)NC9=O)c8)CC7)CC6)CC5)nc4c3F)c12 (stereo not shown) [Compound 142]
> 7.00	> 7.00	> 7.00				C#Cc1c(F)ccc2cc(O)cc(-c3nc(OC)c4c(N5CC6CCC(C5)N6C(=O)C[C@@H](C)C#N)nc(OCC5(CN6CCN(CC7CCN(c8ccc9c(c8)CN(C8CCC(=O)NC8=O)C9=O)CC7)CC6)CC5)nc4c3F)c12 (stereo partly shown) [Compound 143]
> 7.00	> 7.00	> 7.00				C#Cc1c(F)ccc2cc(O)cc(-c3nc(OC)c4c(N5CC6CCC(C5)N6C(=O)CC(C)C#N)nc(OCC5(CNC6CCC(=O)NC6=O)CC5)nc4c3F)c12 (stereo not shown) [Compound 145]
> 7.00	> 7.00	> 7.00				C#Cc1c(F)ccc2cc(O)cc(-c3nc(OC)c4c(N5CC6CCC(C5)N6C(=O)CC(C)C#N)nc(OCC5CCCN(CC6CCN(c7ccc8c(c7)CN(C7CCC(=O)NC7=O)C8=O)CC6)C5)nc4c3F)c12 (stereo not shown) [Compound 146]
> 7.00	> 7.00	> 7.00				C#Cc1c(F)ccc2cc(O)cc(-c3nc(OC(F)(F)F)c4c(N5CC6CCC(C5)N6C(=O)CCC#N)nc(OCC5(CN6CCN(CC7CCN(c8ccc9c(c8)CN(C8CCC(=O)NC8=O)C9=O)CC7)CC6)CC5)nc4c3F)c12 (stereo not shown) [Compound 151]
> 7.00	> 7.00	> 7.00				C#Cc1c(F)ccc2cc(O)cc(-c3nc(OC)c4c(N5CC6CCC(C5)N6C(=O)CC(C)C#N)nc(OCC5(CN6CCN(CC7CCN(c8ccc9c(N%10CCC(=O)NC%10=O)nn(C)c9c8)CC7)CC6)CC5)nc4c3F)c12 (stereo not shown) [Compound 152]

SMILES	pIC50 (AGS; Homo sapiens, 24 h)	pIC50 (NCIH727; Homo sapiens, NCI-H727, 24 h)	pIC50 (LU65A; Homo sapiens, 24 h)	pIC50 (NCIH727; 24 hr)	pIC50 (LU65A; 24 hr)	pIC50 (AGS; 24 hr)
C#Cc1cccc2cccc(-c3ncc4c(N5CC6CCC(C5)N6)nc(OCCN5CCN(Cc6ccc7c(c6)C(=O)N(C6CCC(=O)NC6=O)C7=O)CC5)nc4c3F)c12 (stereo not shown) [Compound 1, 5-((4-(2-((4-(3,8-diazabicyclo[3.2.1]octan-3-yl)-7-(8-ethynylnaphthalen-1-yl)-8-fluoropyrido[4,3-d]pyrimidin-2-yl)oxy)ethyl)piperazin-1-yl)methyl)-2-(2,6-dioxopiperidin-3-yl) isoindoline-1,3-dione hydrochloride]	< 6.00					
